Data set [1] is described as follows: Degradation of apelin peptides by plasma from fasted normal NIH Swiss mice (rp-HPLC, MALDI-TOF MS). It is filed as in vitro ADME. Particulars: for half-life at 263 µg/mL / remaining at 4 h, 263 µg/mL: NIH Swiss, mouse, plasma, pH 7.4. As to the method:
Degradation of Apelin Peptides by Plasma from Fasted Normal NIH Swiss Mice […] The enzymatic reaction was stopped by adding 50 μl of 10% TFA (0.1% v/v; Sigma-Aldrich Ltd, (Poole, Dorset, UK) and frozen at -20° C. until separation. The terminated reaction products were then applied to an analytical Vydac C-8 column (4.6×150 mm; Phenomenex, Macclesfield, Cheshire, UK) for rp-HPLC analysis. The absorbance was monitored at 214 nm using a […] UV 2000 detector (Thermoquest Limited, Manchester, UK) and the traces were recorded by Thermo Electron ChromQuest data collection software (version 4). HPLC peak fractions were collected manually and subjected to MALDI-TOF mass spectrometry for peptide identification. Degradation profile of various apelin-13 related analogues: plasma incubations (4 h) were separated on a Vydac C-8 analytical HPLC column and all peaks were collected prior to analysis by MALDI-TOF mass spectrometry. Degradation fragments, actual molecular weights (Mr) and retention times (RT) are shown. Theoretical molecular weights of each fragment are shown in brackets. […] Degradation fragments, theoretical molecular weights (Mr) and retention times (RT) are shown. Theoretical molecular weights of each fragment are shown in brackets.

Data set [2] has as its system NIH Swiss mice fed a high-fat diet for 150 days. Nature of the data set: Acute and delayed i.p. glucose tolerance test, blood glucose and plasma insulin. It is filed as in vivo. As to the method:
Plasma glucose and plasma insulin concentrations were measured prior to and after i.p. administration of glucose alone (18 mmol/kg body weight), or in combination with apelin analogues (25 nmol/kg body weight) in 18 h fasted mice fed a high-fat diet for 150 days. Values represent mean±SEM for eight mice (n=8). *P<0.05, **P<0.01 and ***P<0.001 compared to glucose alone. FIG. 6 illustrates effect of i.p. administration of glucose alone (18 mmol/kg body weight), ([…])apelin-13 and ([…])apelin-13 alone or in combination (each 25 nmol/kg body weight) on (A) blood glucose and (B) plasma insulin in 18 h fasted mice fed a high-fat diet for 150 days. Values represent mean±SEM for eight mice (n=8). *p<0.05 and **p<0.01 compared to glucose alone, ^+P<0.05 compared to ([…])apelin-13, ^∇P<0.05 and ^∇∇P<0.01 compared to ([…])apelin-13. FIG. 10 illustrates tests conducted 2 h after administration of apelin related analogues (25 nmol/kg body wt) in 18 h fasted mice fed a high-fat diet for 150 days. (A) Blood glucose and (B) plasma insulin was measured before and after i.p. administration of glucose (18 mmol/kg body wt) alone or in combination with apelin analogues. Values represent mean±SEM for eight mice (n=8). *P<0.05 and **P<0.01 compared to glucose alone. FIG. 11 illustrates tests conducted 8 h after administration of apelin related analogues (25 nmol/kg body wt) in 18 h fasted mice fed a high-fat diet for 150 days. (A) Blood glucose and (B) plasma insulin was measured before and after i.p. administration of glucose (18 mmol/kg body wt) alone or in combination with apelin analogues. Values represent mean±SEM for eight mice (n=8). *P<0.05 and **P<0.01 compared to glucose alone. FIG. 12 illustrates acute effects of fatty acid modified apelin analogues on glucose-lowering and insulin release in high fat fed Swiss NIH mice with dietary-induced diabetes. (A) Blood glucose and (B) plasma insulin concentrations were measured prior to and after i.p. administration of glucose alone (18 mmol/kg body weight), or in combination with apelin analogues (25 nmol/kg body weight) in 18 h fasted mice fed a high-fat diet for 150 days. Values represent mean±SEM for eight mice (n=8). *P<0.05, compared to glucose alone. FIG. 13 illustrates tests conducted 16 h after administration of fatty acid apelin analogues (25 nmol/kg body wt) in mice fed a high-fat diet for 150 days. (A) Blood glucose and (B) plasma insulin was measured before and after i.p. administration of glucose (18 mmol/kg body wt) alone or in combination with apelin analogues. Values represent mean±SEM for eight mice (n=8). *P<0.05, **P<0.01 and ***P<0.001 compared to glucose alone. NIH Swiss mice (Harlan UK Ltd., Blackthorne, UK) were derived from a nucleus colony obtained from the National Institute of Health, Bethesda, Md., USA. One group of mice were maintained on a standard rodent diet (10% fat, 30% protein, 60% carbohydrate; percent of total energy 12.99 kJ/g, Trouw Nutrition, Cheshire, UK) and used as a model of normal glycaemia. Other NIH Swiss mice were maintained on a high fat diet (45% fat, 20% protein, 35% carbohydrate; percent of total energy 26.15 […], UK) from 8 weeks of age for 150 days to produce a model of diet induced obesity-diabetes. […] All mice were housed in an air-conditioned room maintained at 22±2° C. with a 12 h light: 12 h dark cycle (08:00-20:00 h), were singly caged, and selected for experimental groups according to body weight and non-fasted blood glucose. Drinking water and diet were freely available. All animal studies were performed in accordance with the UK Animals (Scientific Procedures) Act 1986. For acute in vivo studies, blood samples were collected from the cut tip of the tail vain of fasted, conscious mice into fluoride/heparin coated glucose microcentrifuge tubes (Sarstedt, Germany) immediately prior to (t=0) and at 15, 30, 60 and 105 min following i.p. injection of glucose ([…]).

Data set [3] deals with high fat fed NIH Swiss mice. Nature of the data set: 28 day long-term study, twice daily i.p. administration. Particulars: for Percentage fat mass compared to high-fat fed controls: DEXA; for Glucose tolerance and plasma insulin excursion following an i.p. and oral glucose load: after the 28 day treatment period. It is filed as in vivo. The text has this:
NIH Swiss mice (Harlan UK Ltd., Blackthorne, UK) were derived from a nucleus colony obtained from the National Institute of Health, Bethesda, Md., USA. One group of mice were maintained on a standard rodent diet (10% fat, 30% protein, 60% carbohydrate; percent of total energy 12.99 kJ/g, Trouw Nutrition, Cheshire, UK) and used as a model of normal glycaemia. Other NIH Swiss mice were maintained on a high fat diet (45% fat, 20% protein, 35% carbohydrate; percent of total energy 26.15 […], UK) from 8 weeks of age for 150 days to produce a model of diet induced obesity-diabetes. […] Drinking water and diet were freely available. All animal studies were performed in accordance with the UK Animals (Scientific Procedures) Act 1986. […] Following the run-in period, normal control (n=8) and high-fat fed mice (n=8) received twice daily (09:00 and 17:00 h) i.p. administration of saline vehicle (0.9% NaCl (w/v)) for 28 days. […] Blood samples for glucose and plasma insulin measurement were collected at intervals throughout the study from the cut tail vein of conscious mice. […] Glucose was measured using an Ascensia Contour meter and blood was collected and processed for plasma insulin analysis by radioimmunoassay. Body weight and fat mass was also assessed using the PIXImus DEXA scanner whilst energy expenditure, intake, food intake and feeding bouts were assessed using the CLAMS metabolic chamber. HbA1c was analysed post 28 days using Bayer A1C Now^+ Multi Test meter. Lipid profile test was obtained by using the iLab analyser. Cholesterol, triglyceride and HDL-cholesterol levels were measured, in plasma (3 μl), using the iLab analyser. LDL-cholesterol levels were obtained using the Friedewald equation=total cholesterol-HDL-(triglycerides/3).

The test system of another data set is male NIH Swiss mice. Nature of the data set: Acute effects of apelin analogues on voluntary food intake. It is filed as in vivo. The conditions noted are these: 25 nmol/kg i.p., 150 min, FIG. 39. Here is the method:
Saline and peptide analogues were administered by intraperitoneal injection and cumulative food intake was monitored at 30, 60, 90 and 120 min after feeding.
Mice were habituated to a daily feeding regime of 3 h/day by progressively reducing the daily feeding period over 3 weeks. This was performed to ensure mice consumed entire daily food intake within 3 h, thereby allowing “peptide” effects to be measured over the known eating period of mice. On days 1 to 7, mice were supplied with food from 10:00 h to 20:00 h, on days 8 to 14, food was presented from 10:00 h to 19:00 h and on days 15 to 21, food was restricted to the 3 h interval from 10:00 h to 13:00 h. This regime was continued throughout the experimental period.
Mice that were habituated to a 3 h daily feeding regime were administered with an i.p. injection of saline (0.9% w/v NaCl) or apelin peptide (1-100 nmol/kg bw) at 10:00 h (n=8). Immediately following injection, food was initially weighed and then presented to the mice and subsequently weighed at 30 min intervals up to 180 min.

The mark [4] stands for this setting: acute, peptide 25 nmol/kg i.p. with glucose 18 mmol/kg, Table 4.
Setting [5] is: following a 2 h delay, 25 nmol/kg.
Setting [6] is: following a 8 h delay, 25 nmol/kg.
[7] abbreviates: twice daily 25 nmol/kg bw, 28 days.
The mark [8] stands for this setting: acute, alone and in combination, each 25 nmol/kg i.p. with glucose, Table 5.

For the molecule `CSCC[C@H](NC(=O)[C@@H]1CCCN1C(=O)CNC(=O)[C@H](CCCCN)NC(=O)[C@H](Cc1c[nH]cn1)NC(=O)[C@H](CO)NC(=O)[C@H](CC(C)C)NC(=O)[C@H](CCCNC(=N)N)NC(=O)[C@@H]1CCCN1C(=O)[C@H](CCCNC(=N)N)NC(=O)[C@@H]1CCC(=O)N1)C(=O)N1CCC[C@H]1C(=O)N[C@@H](Cc1ccccc1)C(N)=O` [(pGlu)apelin-13-amide], in data set [1], the “Degradation fragment, Peak 1” value is reported as “amide (1-5)”; the “Degradation fragment, Peak 2” value was “amide (1-12)”; the “Rank order of stability” value stood at 7; the half-life at 263 µg/mL was 10.4 h. Further, the amount remaining at 4 h, 263 µg/mL in data set [1] was 85 ± 1.3%. For the same molecule, in data set [2] (acute, Table 4), the “Rank order on basis of anti-hyperglycaemic efficacy” value (“Rank order on basis” for short) came to 1. Further, in data set [2] (setting [4]), the “Blood glucose as percent of glucose-alone control (lower = stronger glucose lowering)” value is 57% (**) and the “Insulin secretion, where glucose alone = 100%” value is 159% (***). Besides, the “Rank order on basis” value in data set [2] (following a 2 h delay) came to 1. In addition, in data set [2] (setting [5]), the “Blood glucose as percent of glucose-alone control (lower = stronger glucose lowering)” value is 67% (**) and the “Insulin secretion, where glucose alone = 100%” value is given as 146% (***). Also, the “Rank order on basis” value in data set [2] (following a 8 h delay) is listed as 1. In data set [2] (setting [6]), the “Blood glucose as percent of glucose-alone control (lower = stronger glucose lowering)” value was 79% (*) and the “Insulin secretion, where glucose alone = 100%” value is listed as 120% (*). For the same molecule, in data set [2] (glucose lowering, high-fat fed mice), the “Time after injection up to which efficacy is retained” value is given as “up to 8 h”. Further, in data set [3] (after 28 days), the “Glycated haemoglobin (HbA1c) in comparison to high-fat fed saline treated controls” value is on record as “reduction” and the “Percentage fat mass compared to high-fat fed controls” value is “significantly reduced”. Moreover, the Insulin sensitivity result in data set [3] (after 28 days, insulin 25 U/kg bw) is listed as “significantly improved”. For the same molecule, in data set [3], the “Glucose tolerance and plasma insulin excursion following an i.p. and oral glucose load” value is “significantly improved”. Besides, in data set [3] (setting [7]), the “Day of study at which bodyweight was significantly decreased” value was ~20 days; the “Day of study at which circulating blood glucose began to be significantly reduced and plasma insulin increased” value was 10 days; the Food intake entry was “significantly reduced food intake”; the “Non-fasting plasma insulin levels” value is “significant increase”.
In the case of `CSCC[C@H](NC(=O)[C@@H]1CCCN1C(=O)CNC(=O)[C@H](CCCCN)NC(=O)[C@H](Cc1c[nH]cn1)NC(=O)[C@H](CO)NC(=O)[C@H](CC(C)C)NC(=O)[C@H](CCCNC(=N)N)NC(=O)[C@@H]1CCCN1C(=O)[C@H](CCCNC(=N)N)NC(=O)[C@@H](N)CCC(N)=O)C(=O)N1CCC[C@H]1C(=O)N[C@@H](Cc1ccccc1)C(N)=O` [Apelin-13-amide], in data set [1], the “Degradation fragment, Peak 1” value is “Apelin-13-amide (1-12)”; the “Rank order of stability” value was found to be 5; the half-life at 263 µg/mL is 11.4 h; the amount remaining at 4 h, 263 µg/mL was determined as 80.4 ± 1.9%. For the same molecule, the “Rank order on basis” value in data set [2] (acute, Table 4) came to 2. In addition, in data set [2] (setting [8]), the “Glucose lowering, where glucose alone = 100%” value is given as 65% (**) and the “Insulin secretion, where glucose alone = 100%” value is recorded as 153% (***). Further, in data set [2] (setting [4]), the “Blood glucose as percent of glucose-alone control (lower = stronger glucose lowering)” value was 65% (**) and the “Insulin secretion, where glucose alone = 100%” value is 153% (***). Further, the “Rank order on basis” value in data set [2] (following a 2 h delay) is on record as 2. Further, in data set [2] (setting [5]), the “Blood glucose as percent of glucose-alone control (lower = stronger glucose lowering)” value was 73% (**) and the “Insulin secretion, where glucose alone = 100%” value was 142% (**). The “Rank order on basis” value in data set [2] (following a 8 h delay) stood at 3. Further, in data set [2] (setting [6]), the “Blood glucose as percent of glucose-alone control (lower = stronger glucose lowering)” value is listed as 88% ^ and the “Insulin secretion, where glucose alone = 100%” value came to 106%. Further, the “Percentage fat mass compared to high-fat fed controls” value in data set [3] (after 28 days) is “failed to reach significance”. For the same molecule, the “Glucose tolerance and plasma insulin excursion following an i.p. and oral glucose load” value in data set [3] is on record as “significantly improved”. Besides, the “Day of study at which bodyweight was significantly decreased” value in data set [3] (setting [7]) is ~20 days.
Consider `CCCCCCCCCCCCCCCC(=O)N[C@@H](CCC(=O)NCCCC[C@H](NC(=O)[C@H](Cc1c[nH]cn1)NC(=O)[C@H](CO)NC(=O)[C@H](CC(C)C)NC(=O)[C@H](CCCNC(=N)N)NC(=O)[C@@H]1CCCN1C(=O)[C@H](CCCNC(=N)N)NC(=O)[C@@H](N)CCC(N)=O)C(=O)NCC(=O)N1CCC[C@H]1C(=O)N[C@@H](CCSC)C(=O)N1CCC[C@H]1C(=O)N[C@H](C(=O)O)C(C)C)C(=O)O` [Lys^8GluPAL(Val^13)apelin-13], for which the “Increase of food intake, maximal, compared to saline treated control” value in the data set on male NIH Swiss mice is listed as 9.2%.

The term half-life denotes how long it takes for the measured level to halve. As usually defined, the fraction remaining is what is left of the initial amount, in per cent.

The values above are taken from patent US10118954B2, “Apelin analogues” (University of Ulster, priority 2014, dated 2018).
